Legend:
[1] = system: cardiomyocytes (CMs); test: BrdU cell proliferation assay, cardiomyocytes in cardiomyocyte/cardiac fibroblast co-culture; assay type: cell-based, rat; conditions: BIO 2.5 μM and 5 μM, after 2 days and 5 days, FIG. 1
Protocol: (§1) Hearts of two-day-old rats were removed and washed with physiological saline. Thereafter, left cardiac muscles were separated from the hearts in a sterilization cabinet, and microtomed into segments. These myocardial tissues were added to a collagenase enzyme solution, reacted at 37° C. while stirring, and then centrifuged to collect only the supernatant which were then kept in a cell culture flask. After an hour, cardiomyocytes which floated when the supernatant was transferred to a new culture flask were separated from cardiac fibroblasts attached to the bottom of the cell culture flask. At this point, both the cardiomyocytes and the cardiac fibroblasts were cultured in a Dulbecco's modified Eagle's medium (DMEM) supplemented with 10% fetal bovine serum (FBS) and then used for experiments.
(§2) After 2 days and 5 days, the proliferation of cells was quantified.
(§3) To determine the level of new DNA synthesis, a cell proliferation assay was performed by adding bromodeoxyuridine (BrdU) to a cell culture broth in advance to incorporate BrdU into DNAs of cells and performing a chromogenic reaction using an anti-BrdU antibody.

[2] = system: cardiac fibroblasts (cFBs); test: BrdU cell proliferation assay, cardiac fibroblasts in cardiomyocyte/cardiac fibroblast co-culture; assay type: cell-based, rat
Protocol: as §1, §2, §3
Then, cells which were not stained with cardiac troponin I but stained with DAPI were regarded as cardiac fibroblasts and then counted.

[3] = system: MI animal model; test: Echocardiography of cardiac function in MI animal model; assay type: in vivo, rat; conditions: MI rats, 0.2 mg/body weight intra-abdominally daily
Protocol: (§4) To induce the onset of myocardial infarction, first of all, rats weighing 200 to 230 g were anesthetized with ketamine (50 mg/kg) and xylazine (5 mg/kg), and the chests of the rats were shaved and disinfected. An anesthesia ventilator was installed to manage the airway of the rat, and the chest was incised to expose the heart. Then, a cardiac muscle was sutured in a region of the left anterior descending artery (LAD) to block a blood flow, thereby establishing an MI animal model.
(§5) After two weeks, the rats were anesthetized, and subjected to echocardiography to examine the cardiac functions.
In this case, the indices have the following meanings. • IVSd; thickness of interventricular septum (diastole) • IVSs; thickness of interventricular septum (systole) • LVIDd; thickness of left ventricular internal dimension (diastole) • LVIDs; thickness of left ventricular internal dimension (systole) • LVPWd; left ventricle posterior wall thickness (diastole) • LVPWs; left ventricle posterior wall thickness (systole) • EF; ejection fraction • FS; fractional shortening

[4] = system: MI animal model; test: Myocardial fibrosis by Masson's trichrom staining in MI animal model; assay type: in vivo, rat; conditions: MI rats, MI+BIO vs MI+vehicle, FIG. 4
Protocol: as §4, §5
To quantify myocardial fibrosis, the heart tissues were also removed, fixed with formalin, embedded in a paraffin block, and then microtomed into sections having a thickness of 10 μm. Thereafter, the sections were histologically stained using a Masson's trichrom method.

[5] = system: macrophage cell line RAW264.7; test: iNOS expression in LPS-stimulated macrophages, Western blotting; assay type: cell-based, mouse; conditions: RAW264.7, LPS 100 ng/mL, BIO 0, 1, 2.5 and 5 μM, FIG. 5
Protocol: A mouse macrophage cell line RAW264.7 (Korean Cell Line Bank) was cultured in a DMEM broth supplemented with 10% fetal bovine serum, and lipopolysaccharide (LPS) was added at a concentration of 100 ng/mL to the culture broth to initiate inflammation of macrophages.

[6] = system: MI animal model; test: Macrophage phenotype (CD68/Arg1 immunofluorescence) in cardiac muscle of MI animal model; assay type: in vivo, rat; conditions: MI rats, 2nd week after onset of myocardial infarction, FIG. 6
Protocol: Specifically, a slide for myocardial infarction heart tissues was treated with an anti-CD68 antibody and an anti-Arg1 antibody, and a fluorescence image was visualized using a secondary antibody. Then, the tissues were observed under a confocal microscope with a magnification of 800 times. Since the macrophages in the tissues expressed CD68, the macrophages were detected using the anti-CD68 antibody. Also, since a marker used to distinguish the characteristics of the macrophages in the tissues was iNOS in the case of the inflammatory M1 macrophages and arginase 1 (Arg1) in the case of the anti-inflammatory M2 macrophages, the macrophages were stained with an anti-inflammatory marker Arg1 for macrophages in order to determine how many the phenotype of the macrophages in the heart was converted into the M2 type at the 2nd week after the onset of myocardial infarction.

[7] = target: T1, GSK3β (Rattus norvegicus, UniProt P18266); test: p-GSK3β expression in cardiac fibroblasts, Western blotting; assay type: cell-based; conditions: cardiac fibroblasts, 0, 0.25, 2.5 and 5 μM for 2 days, FIG. 7
T1 construct: endogenous in cells; host or cells: cardiac fibroblasts (primary culture)
T1 sequence (P18266 whole entry): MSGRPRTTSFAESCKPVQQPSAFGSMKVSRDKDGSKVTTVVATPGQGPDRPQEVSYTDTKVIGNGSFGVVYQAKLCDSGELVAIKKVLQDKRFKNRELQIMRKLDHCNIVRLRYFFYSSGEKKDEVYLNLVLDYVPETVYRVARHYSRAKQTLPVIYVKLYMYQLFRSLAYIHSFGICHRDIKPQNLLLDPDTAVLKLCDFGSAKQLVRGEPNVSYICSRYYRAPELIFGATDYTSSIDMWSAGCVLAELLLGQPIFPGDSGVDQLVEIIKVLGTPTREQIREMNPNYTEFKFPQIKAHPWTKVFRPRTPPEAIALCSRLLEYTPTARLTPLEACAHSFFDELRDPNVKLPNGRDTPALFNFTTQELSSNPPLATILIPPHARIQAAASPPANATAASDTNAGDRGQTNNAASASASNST
Protocol: Since GSK3β was in an inert state when phosphorylated, an increase in expression level of p-GSK3β was determined using Western blotting in order to evaluate the inhibition of GSK3β.

[8] = echocardiography after two weeks

Row | expression level of p-GSK3β (inert form), GSK3β inhibition [7] | Compound | BrdU (+) CM/total CM, proliferation rate of dividing cardiomyocytes [1] | BrdU (+) cFB/total cFB, proliferation rate of dividing cardiac fibroblasts ([2]; co-culture, BIO 2.5 μM and 5 μM, FIG. 2) | diastolic and systolic functions of the heart ([3]; after two weeks, vs MI+saline) | EDV [3, 8] | EF; ejection fraction [3, 8] | ESV [3, 8] | FS; fractional shortening [3, 8] | IVSd; thickness of interventricular septum (diastole) [3, 8] | IVSs; thickness of interventricular septum (systole) [3, 8] | LVIDd; thickness of left ventricular internal dimension (diastole) [3, 8] | LVIDs; thickness of left ventricular internal dimension (systole) [3, 8] | LVPWd; left ventricle posterior wall thickness (diastole) [3, 8] | LVPWs; left ventricle posterior wall thickness (systole) [3, 8] | SV [3, 8] | fibrosis regions (blue), myocardial fibrosis [4] | expression of iNOS (inflammatory marker) [5] | Arg1-expressing (anti-inflammatory M2 type) macrophages in the cardiac muscles [6] | inhibitory effect on the proliferation of the cardiac fibroblasts ([2]; BIO 5 μM and 10 μM vs LiCl, same manner as Example 3, FIG. 8)
1 |  | O=C1Nc2cc(Br)ccc2/C1=C1/Nc2ccccc2/C1=N\O [BIO, (2′Z,3′E)-6-bromoindirubin-3′-oxime] | significantly increased | significantly decreased | well preserved | 1.563 ± 0.308 | 41.313 ± 6.823 | 0.911 ± 0.251 | 18.262 ± 3.525 | 0.079 ± 0.013 | 0.084 ± 0.028 | 0.900 ± 0.066 | 0.736 ± 0.074 | 0.089 ± 0.023 | 0.115 ± 0.019 | 0.651 ± 0.116 | significantly reduced | lowered in a concentration-dependent manner | prevailed | 
2 | increased | [Cl-].[Li+] [LiCl, reference compound] |  |  |  |  |  |  |  |  |  |  |  |  |  |  |  |  |  | not observed

From patent publication US9757356B2 (CHONNAM NATIONAL UNIVERSITY HOSPITAL, priority 2015, dated 2017)
